Laboratory results from patent publication US12096772B2, “Herbicidal compositions” (SYNGENTA CROP PROTECTION AG, priority 2022, dated 2024).

System: Amaranthus palmeri (AMAPA)
Assay: Post-emergence greenhouse percent control of Amaranthus palmeri
Format: in vivo
Details: herbicide alone; for Observed control 7DAA: 7 days after application; for Observed control 14DAA: 14 days after application; for Observed control 21DAA: 21 days after application
Protocol: Seeds of Amaranthus palmeri (AMAPA) were sown in vero beach potting soil and grown in a greenhouse. The herbicides, alone and in combination, were applied post-emergence when the weeds were 3 to 4-inches along with adjuvants 2.5% v/v AMSOL® and 1% v/v AgriDex® using a spray TT110015 nozzle providing 15 gallons/acre. Percent control evaluations were performed at 7, 14, and 21 days after application.
Expected action was calculated by the Colby formula.

## CS(=O)(=O)c1ccc(C(=O)C2C(=O)CCCC2=O)c([N+](=O)[O-])c1 [Mesotrione, mesotrione]
10 g ai/ha
  Observed control 7DAA: 75%
  Observed control 14DAA: 63%
  Observed control 21DAA: 62%

## bicyclopyrone
10 g ai/ha
  Observed control 7DAA: 72%
  Observed control 14DAA: 60%
  Observed control 21DAA: 57%

## O=c1cc(Cl)[nH]nc1-c1ccccc1 [Pyridafol, pyridafol]
2.5 g ai/ha
  Observed control 7DAA: 0%
  Observed control 14DAA: 0%
  Observed control 21DAA: 0%
5 g ai/ha
  Observed control 7DAA: 0%
  Observed control 14DAA: 0%
  Observed control 21DAA: 0%
10 g ai/ha
  Observed control 7DAA: 0%
  Observed control 14DAA: 0%
  Observed control 21DAA: 0%
27 g ai/ha
  Observed control 7DAA: 5%
  Observed control 14DAA: 2%
  Observed control 21DAA: 0%
57 g ai/ha
  Observed control 7DAA: 17%
  Observed control 14DAA: 10%
  Observed control 21DAA: 3%
87 g ai/ha
  Observed control 7DAA: 23%
  Observed control 14DAA: 15%
  Observed control 21DAA: 13%
117 g ai/ha
  Observed control 7DAA: 23%
  Observed control 14DAA: 17%
  Observed control 21DAA: 7%
